# Experimental data taken from patent US20250304571A1, “BIOLOGICALLY ACTIVE COMPOUNDS AND METHODS THEREOF” (Suzhou Keen Therapeutics Co., Ltd., priority 2022, published 2025).
# Test system: 786-O (renal cell carcinoma) cells
# Test: Cell viability (CellTiter Glo) assay, inhibition of 786-O cell proliferation
# Format: cell-based
# Conditions: 786-O cells, 72 hours, CellTiter Glo; read-out: IC50, inhibition of 786-O cell proliferation
row,Structure (SMILES),IC50
1,CNc1nc(COC(=N)N2CCC[C@@H]2C(F)(F)F)nc2c1C(C)(C)C(=O)N2c1cc(F)c2c(c1)nc(C)n2C(C)C [Compound E32],< 100 nM
2,CC1(C)C(=O)N(c2ccc3c(c2)C2(CCO3)CC2)c2nc(COC(=N)N3CCC[C@@H]3C(F)(F)F)nc(NCC(F)(F)F)c21 [Compound E66],< 100 nM

# Same assay, conditions: Homo sapiens, 786-0, 72 h, read-out: IC50, inhibition of 786-O cell proliferation
row,Structure (SMILES),IC50
1,CN(C)C(=N)OCc1nc(NC2CCCCC2)c2cc[nH]c2n1 [Compound D9],500 to 5000 nM
2,CN(C)C(=N)OCc1ncc2c(n1)c(-c1ccc(Oc3ccccc3)cc1)nn2C [Compound D11],500 to 5000 nM
3,COc1cc(N2CCOCC2)ccc1N1CC(C)(C)c2c(OCC(F)(F)F)nc(COC(=N)N3CCC[C@@H]3C(F)(F)F)nc21 [Compound E17],< 100 nM
4,CNc1nc(COC(=N)N2CCCC2C(F)(F)F)nc2c1C(C)(C)C(=O)N2c1ccccc1Oc1ccccc1F (stereo not shown) [Compound E29],< 100 nM
5,C[C@@H]1CN(c2ccc(N3C(=O)C4(CCCC4)c4c(N)nc(COC(=N)N5CCC[C@@H]5C(F)(F)F)nc43)cn2)C[C@H](C)O1 [Compound E46],< 100 nM

# Same assay, conditions: Homo sapiens, 786-0; 786-O cells, 72 hours, CellTiter Glo; read-out: IC50, inhibition of 786-O cell proliferation
row,Structure (SMILES),IC50
1,CCCC[C@H]1Cc2cc(OC)ccc2[C@H](c2ccc(F)cc2)N1C(=O)CO/C(=N\CCCN(C)C)NCC [Compound A3],> 5000 nM
2,CCCC[C@H]1Cc2cc(OC)ccc2[C@H](c2ccc(F)cc2)N1C(=O)CO/C(=N\C(C)C)NC(C)C [Compound A4],500 to 5000 nM
3,CCCCC1Cc2c([nH]c3ccccc23)C(c2ccc(NC34CC5CC(CC(C5)C3)C4)cc2)N1C(=O)CO/C(=N\C(C)C)NC(C)C (stereo not shown) [Compound B1],> 5000 nM
4,CCCCC1Cc2c([nH]c3ccccc23)C(c2ccc(F)cc2)N1C(=O)COC(=N)N1CCN(CC)C(=O)C12CC2 (stereo not shown) [Compound B2],500 to 5000 nM
5,N=C(OCc1ncc2c(n1)N(c1ccc(Oc3ccccc3)cc1)C(=O)CC2)N1CCC(F)(F)CC1 [Compound C1],> 5000 nM
6,CC1(C)CN(c2ccc(Oc3ccccc3)cc2)c2nc(COC(=N)NC34CC5CC(CC(C5)C3)C4)nc(N)c21 [Compound E3],100 to 500 nM
7,COc1ccc(CNc2nc(COC(=N)N3CCC(F)(F)CC3)nc3c2C(C)(C)CN3c2ccc(Oc3ccccc3)cc2)cc1 [Compound E6],100 to 500 nM
8,"CNc1nc(COC(=N)N2CCC(F)(F)CC2)nc2c1C(C)(C)CN2c1ccc(Oc2ccccc2)cc1 [Compound E7, (5,5-dimethyl-4-(methylamino)-7-(4-phenoxyphenyl)-6,7-dihydro-5H-pyrrolo[2,3-d]pyrimidin-2-yl)methyl 4,4-difluoropiperidine-1-carbimidate]",< 100 nM
9,CCN(CC(F)(F)F)C(=N)OCc1ncc2c(n1)N(c1ccc(Oc3ccccc3)cc1)CC2(C)C [Compound E9],< 100 nM
10,CC1(C)CN(c2ccc(Oc3ccccc3)cc2)c2nc(COC(=N)N3CCCCC3C(F)(F)F)ncc21 (stereo not shown) [Compound E10],< 100 nM
11,CC1(C)CN(c2ccc(Oc3ccccc3)cc2)c2nc(COC(=N)N3CCCC34COC4)ncc21 [Compound E11],500 to 5000 nM
12,N=C(OCc1ncc2c(n1)N(c1ccc(Oc3ccccc3)cc1)C(=O)C21CC1)N1CCCCC1C(F)(F)F (stereo not shown) [Compound E12],100 to 500 nM
13,CC(C)N(CC(F)(F)F)C(=N)OCc1ncc2c(n1)N(c1ccc(OC3CCCCC3)nc1)C(=O)C21CC1 [Compound E13],100 to 500 nM
14,CNc1nc(COC(=N)N2CCCC2C(F)(F)F)nc2c1C(C)(C)CN2c1ccc(N2CCOCC2)cc1OC (stereo not shown) [Compound E15],< 100 nM
15,COc1cc(N2CCOCC2)ccc1N1CC(C)(C)c2c(NCC(F)(F)F)nc(COC(=N)N3CCC[C@@H]3C(F)(F)F)nc21 [Compound E16],< 100 nM
16,CC1(C)CN(c2ccc(N3CCOCC3)cc2)c2nc(COC(=N)N3CCCC3C(F)(F)F)nc(N)c21 (stereo not shown) [Compound E18],< 100 nM

row,Structure (SMILES),IC50
1,CNc1nc(COC(=N)N2CCC[C@@H]2C(F)(F)F)nc2c1C(C)(C)CN2c1ccc(N2C[C@@H](C)O[C@@H](C)C2)nc1 [Compound E19],< 100 nM
2,C[C@@H]1CN(c2ccc(N3CC(C)(C)c4c(N)nc(COC(=N)N5CCC[C@@H]5C(F)(F)F)nc43)cn2)C[C@H](C)O1 [Compound E20],< 100 nM
3,C[C@@H]1CN(c2ccc(N3CC4(CCC4)c4c(NCC(F)(F)F)nc(COC(=N)N5CCC[C@@H]5C(F)(F)F)nc43)cn2)C[C@H](C)O1 [Compound E21],< 100 nM
4,CNc1nc(COC(=N)N2CCCC2C(F)(F)F)nc2c1C(C)(C)C(=O)N2c1ccc(N2CCC(F)(F)CC2)nc1 (stereo not shown) [Compound E22],< 100 nM
5,CNc1nc(COC(=N)N2CCCC2C(F)(F)F)nc2c1C(C)(C)C(=O)N2c1ccc(N2C[C@@H](C)O[C@@H](C)C2)cc1 (stereo partly shown) [Compound E23],< 100 nM
6,CC#CC(C)(C)N(C)C(=N)OCc1nc(N)c2c(n1)N(c1ccc(N3CCOCC3)cc1)C(=O)C2(C)C [Compound E27],500 to 5000 nM
7,CNc1nc(COC(=N)N2CCC[C@@H]2C(F)(F)F)nc2c1C(C)(C)C(=O)N2c1cc(F)c2c(cnn2C(C)C)c1 [Compound E31],< 100 nM
8,C[C@@H]1CN(c2ccc(N3C(=O)C4(CCC4)c4c(N)nc(COC(=N)N5CCC[C@@H]5C(F)(F)F)nc43)cn2)C[C@H](C)O1 [Compound E33],< 100 nM
9,C[C@@H]1C[C@H](C)CN(c2ncc(N3C(=O)C(C)(C)c4c(N)nc(COC(=N)N5CCC[C@@H]5C(F)(F)F)nc43)cc2F)C1 [Compound E34],< 100 nM
10,C[C@@H]1C[C@H](C)CN(c2ccc(N3C(=O)C(C)(C)c4c(N)nc(COC(=N)N5CCC[C@@H]5C(F)(F)F)nc43)cc2F)C1 [Compound E35],< 100 nM
11,CNc1nc(COC(=N)N2CCC[C@@H]2C(F)(F)F)nc2c1C(C)(C)C(=O)N2c1cnc(N2C[C@@H](C)O[C@@H](C)C2)c(F)c1 [Compound E36],< 100 nM
12,C[C@@H]1CN(c2ncc(N3C(=O)C(C)(C)c4c(N)nc(COC(=N)N5CCC[C@@H]5C(F)(F)F)nc43)cc2F)C[C@H](C)O1 [Compound E37],< 100 nM
13,C[C@@H]1CN(c2ccc(N3C(=O)C(C)(C)c4c(NCC(F)(F)F)nc(COC(=N)N5CCC[C@@H]5C(F)(F)F)nc43)cn2)C[C@H](C)O1 [Compound E38],< 100 nM
14,CNc1nc(COC(=N)N2CCC[C@@H]2C(F)(F)F)nc2c1C(C)(C)C(=O)N2c1ccc(N2C[C@H](C)C[C@H](C)C2)c(F)c1 [Compound E39],< 100 nM
15,CNc1nc(COC(=N)N2CC(F)(F)C[C@@H]2C)nc2c1C(C)(C)C(=O)N2c1ccc(N2CCOCC2)cc1 [Compound E41],100 to 500 nM
16,CNc1nc(COC(=N)N2CC(F)(F)C[C@H]2C)nc2c1C(C)(C)C(=O)N2c1ccc(N2CCOCC2)cc1 [Compound E42],100 to 500 nM

# Continued, values first:
row,IC50,Structure (SMILES)
1,100 to 500 nM,CNc1nc(COC(=N)N2CCC[C@H]2C(F)(F)F)nc2c1C1(CCCC1)C(=O)N2c1cnc(N2C[C@@H](C)O[C@@H](C)C2)nc1 (relative stereo) [Compound E103]
2,< 100 nM,C[C@@H]1C[C@H](C)CN(c2ccc(N3C(=O)C(C)(C)c4c(NCC(F)(F)F)nc(COC(=N)N5CCC[C@@H]5C(F)(F)F)nc43)cc2F)C1 [Compound E43]
3,< 100 nM,C[C@@H]1CN(c2ccc(N3C(=O)C4(CCCC4)c4c(NCC(F)(F)F)nc(COC(=N)N5CCC[C@@H]5C(F)(F)F)nc43)cn2)C[C@H](C)O1 [Compound E44]
4,< 100 nM,C[C@@H]1CN(c2ccc(N3C(=O)C4(CCCCC4)c4c(N)nc(COC(=N)N5CCC[C@@H]5C(F)(F)F)nc43)cn2)C[C@H](C)O1 [Compound E45]
5,100 to 500 nM,COc1cc(N2C[C@@H](C)O[C@@H](C)C2)ncc1N1C(=O)C(C)(C)c2c(N)nc(COC(=N)N3CCC[C@@H]3C(F)(F)F)nc21 [Compound E47]
6,< 100 nM,CC1(C)C(=O)N(c2ccc(N3CCOCC3)cc2)c2nc(COC(=N)N3CCC[C@@H]3C(F)(F)F)nc(NCC(F)(F)F)c21 [Compound E48]
7,< 100 nM,CC1(C)C(=O)N(c2ccc(N3CCCCC3)cc2)c2nc(COC(=N)N3CCC[C@@H]3C(F)(F)F)nc(NCC(F)(F)F)c21 [Compound E49]
8,< 100 nM,C[C@@H]1CN(c2ccc(N3C(=O)C(C)(C)c4c(NCC(F)(F)F)nc(COC(=N)N5CCC[C@@H]5C(F)(F)F)nc43)cc2F)C[C@H](C)O1 [Compound E50]
9,< 100 nM,CC1(C)C(=O)N(c2cc(F)c3c(c2)CCCO3)c2nc(COC(=N)N3CCC[C@@H]3C(F)(F)F)nc(NCC(F)(F)F)c21 [Compound E51]
10,100 to 500 nM,CC1(C)C(=O)N(c2ccc(N3CCOCC3)cc2)c2nc(COC(=N)N3CC(F)C[C@H]3C(F)(F)F)nc(N)c21 (stereo partly shown) [Compound E52]
11,< 100 nM,"N=C(OCc1nc(NC2CC2)c2c(n1)N(c1ccc(N3CCOCC3)cc1)C(=O)C21CCCC1)N1CCC[C@@H]1C(F)(F)F [Compound E53, (4′-(cyclopropylamino)-7′-(4-morpholinophenyl)-6′-oxo-6′,7′-dihydrospiro[cyclopentane-1,5′-pyrrolo[2,3-d]pyrimidin]-2′-yl)methyl (R)-2-(trifluoromethyl)pyrrolidine-1-carbimidate]"
12,< 100 nM,CN(C)c1nc(COC(=N)N2CCC[C@@H]2C(F)(F)F)nc2c1C(C)(C)C(=O)N2c1ccc(N2CCOCC2)cc1 [Compound E54]
13,< 100 nM,N=C(OCc1nc(NC2CC2)c2c(n1)N(c1cc(F)c3c(c1)CCO3)C(=O)C21CCCCC1)N1CCC[C@@H]1C(F)(F)F [Compound E55]
14,< 100 nM,C=CCNc1nc(COC(=N)N2CCC[C@@H]2C(F)(F)F)nc2c1C(C)(C)C(=O)N2c1ccc(N2CCOCC2)cc1 [Compound E56]
15,< 100 nM,N=C(OCc1ncc2c(n1)N(c1ccc(N3CCOCC3)cc1)C(=O)C21CCCCC1)N1CCC[C@@H]1C(F)(F)F [Compound E58]
16,< 100 nM,CC1(C)C(=O)N(c2cnc(N3CCC(F)(F)CC3)nc2)c2nc(COC(=N)N3CCC[C@@H]3C(F)(F)F)nc(NC3CC3)c21 [Compound E59]
17,< 100 nM,N=C(OCc1nc(NCC(F)(F)F)c2c(n1)N(c1cc(F)c3c(c1)CCO3)C(=O)C21CCCC1)N1CCC[C@@H]1C(F)(F)F [Compound E61]
18,< 100 nM,N=C(OCc1nc(N)c2c(n1)N(c1cnc(C3CC3)nc1)C(=O)C21CCCC1)N1CCC[C@@H]1C(F)(F)F [Compound E63]
19,< 100 nM,CC1(C)C(=O)N(c2cc(F)c3c(c2)CCO3)c2nc(COC(=N)N3CCC[C@@H]3C(F)(F)F)nc(N)c21 [Compound E65]
